Seven molecules from patent US20260166162A1, “CARBON CHAIN SUBSTANCE FOR REGULATING TRANSMEMBRANE TRANSPORT AND FLUIDITY OF CELL MEMBRANES, AND PREPARATION AND USE THEREOF” (priority 2022, published 2026) can be followed below.

Read-outs that look alike come from different tables or passages of the source.

Series [1] deals with IL-1β. The experiment in a line: LPS inflammatory aging in C57BL/6 mice, serum IL-1β (Example II-55, Table II-35). It counts as in vivo, mouse. Particulars: 1 mM, 200 μl/time, once a day, 30 days.
Series [2] deals with IL-1β. The experiment in a line: Skin photoaging (UVB) in BALB/c nude mice, serum IL-1β (Example II-54, Table II-33). It counts as in vivo, mouse. Particulars: serum, UVB-irradiated BALB/c nude mice, 40 days.
In series [3] the test system is Hela cells. The experiment in a line: Cell membrane fluidity (Laurdan fluorescence recovery) in Hela cells. It counts as cell-based.
Series [4] concerns Klebsiella pneumoniae. In words: Bacteriostasis/sterilization test (plate count). The series is classed as cell-based. Particulars: for inhibition at 35 µM: Klebsiella pneumoniae, read-out: Inhibition rate (%).
The subject of series [5] is Staphylococcus aureus. The experiment in a line: Bacteriostasis/sterilization test (plate count). Particulars: for inhibition rate: concentration 0.035 mM; for IC50: read-out: half inhibition concentration; for inhibition at 35 µM: read-out: Inhibition rate (%); for inhibition at 9 µM: concentration 0.009 mM, read-out: inhibition rate. It counts as cell-based.
The subject of series [6] is SARS-CoV-2 pseudovirus. Also on record: species or system SARS-CoV-2 pseudovirus B.1.526.2.
Series [7] concerns Methicillin-resistant Staphylococcus aureus. The experiment in a line: Bacteriostasis/sterilization test (plate count). The series is classed as cell-based. Particulars: 0.035 mM (Table 25).
In series [8] the test system is TNF-α. The experiment in a line: LPS inflammatory aging in C57BL/6 mice, serum TNF-α (Example II-55, Table II-37). The series is classed as in vivo, mouse. Particulars: 1 mM, 200 μl/time once a day for 30 days, LPS C57BL/6 mice.
The subject of series [9] is HIV pseudovirus. It counts as cell-based, HIV pseudovirus HIV18A-41.
The subject of series [10] is H5N1 pseudovirus. The series is classed as cell-based, Influenza pseudovirus H5N1-Fluc.
For series [11], the system named is Pseudomonas aeruginosa. The experiment in a line: Bacteriostasis/sterilization test (plate count). The series is classed as cell-based. Particulars: for inhibition at 35 µM: Pseudomonas aeruginosa, read-out: Inhibition rate (%).
For series [12], the system named is TNF-α. In words: Skin photoaging (UVB) in BALB/c nude mice, serum TNF-α (Example II-54, Table II-32). Particulars: UVB-irradiated BALB/c nude mice, 40 days. The series is classed as in vivo, mouse.
The subject of series [13] is SARS-CoV-2 pseudovirus. It counts as cell-based, SARS-CoV-2 pseudovirus B.1.526.2.
Series [14] deals with H7N9 pseudovirus. It counts as cell-based, Influenza pseudovirus H7N9-Fluc.
Series [15] deals with IL-6. In words: Skin photoaging (UVB) in BALB/c nude mice, serum IL-6 (Example II-54, Table II-34). The series is classed as in vivo, mouse. Particulars: serum, UVB-irradiated BALB/c nude mice, 40 days.
The test system of series [16] is Streptococcus pneumoniae. The experiment in a line: Bacteriostasis/sterilization test (plate count). It counts as cell-based. Particulars: for inhibition at 35 µM: Streptococcus pneumoniae, read-out: Inhibition rate (%).
For series [17], the system named is IL-6. The experiment in a line: LPS inflammatory aging in C57BL/6 mice, serum IL-6 (Example II-55, Table II-36). The series is classed as in vivo, mouse. Particulars: 1 mM, 200 μl/time once a day for 30 days; serum, LPS C57BL/6 mice.
For series [18], the system named is Escherichia coli. In words: Bacteriostasis/sterilization test (plate count). It counts as cell-based. Particulars: for inhibition at 35 µM: Escherichia coli, read-out: Inhibition rate (%).
Series [19] concerns VERO E6 cells. The experiment in a line: Cytotoxicity (CCK-8) on VERO E6 cells.
For series [20] the following is noted: mouse, in vivo, po.
For series [21], the system named is Human hair follicle stem cells. The experiment in a line: Human hair follicle stem cell proliferation (EdU). It counts as cell-based. Particulars: 20 μM, 30 μM, 50 μM, 6 h.
Series [22] relates to Hela cells. The experiment in a line: Cell migration (scratch) in Hela cells. Particulars: 24 h. The series is classed as cell-based. As for the experimental part:
Hela cells in logarithmic growth phase (cell bank of Chinese Academy of Sciences) were trypsinized into a single cell suspension and inoculated into a 6-well culture plate. […] The next day 5 nM Thr-EPA was added by scratching with a 200-microliter gun tip against the horizontal line on the vertical back of the lid of the 6-well plate. 24 h later, samples were taken and photographed. […] Hela cells in logarithmic growth phase (cell bank of Chinese Academy of Sciences) were trypsinized into a single cell suspension and inoculated into a 6-well culture plate. […] The next day […] Thr-EPA was added by scratching with a 200-microliter gun tip against the horizontal line on the vertical back of the lid of the 6-well plate. 24 h later, samples were taken and photographed.

[23] abbreviates: Staphylococcus aureus, 0.035 mM (Table 25).

Consider `CCC=CCC=CCC=CCC=CCC=CCC=CCCC(=O)OC(C)C(N)C(=O)O` (stereo not shown), for which the “IL-1β” value in series [1] came to 55 pg/mL; in [2] (30 μM smeared), 54 pg/mL; in series [2] (50 μM smeared), 56 pg/mL; in [2] (100 μM smeared), 50 pg/mL. In addition, the “Fluorescence recovery rate %” value worked out at 65.48% in [3] (2 nM, 20 s); 66.31% in series [3] (2 nM, 40 s); 66.25% in [3] (2 nM, 60 s); 66.78% in series [3] (2 nM, 80 s); 65.47% in [3] (5 nM, 20 s); 65.23% in series [3] (5 nM, 40 s). Further, the “Fluorescence recovery rate %” value in series [3] (5 nM, 60 s) turned out to be 65.38%; in series [3] (5 nM, 80 s) it was 66.45%; in series [3] (10 nM, 20 s) it was 65.89%; in [3] (10 nM, 40 s), 66.04%; in series [3] (10 nM, 60 s) it was 66.59%; in series [3] (10 nM, 80 s), 66.71%. For the same molecule, the “Fluorescence recovery rate %” value in [3] (50 nM, 20 s) is 67.42%; in series [3] (50 nM, 40 s), 67.43%; in series [3] (50 nM, 60 s) it was 67.57%; in series [3] (50 nM, 80 s), 68.06%; in series [3] (50 μM, 20 s) it was 66.54%; in series [3] (50 μM, 40 s) it was 73.45%. For the same molecule, the “Fluorescence recovery rate %” value in series [3] (50 μM, 60 s) came out at 77.91%; in series [3] (50 μM, 80 s), 84.66%; in [3] (100 μM, 20 s), 66.60%; in [3] (100 μM, 40 s), 74.67%; in [3] (100 μM, 60 s), 78.31%; in series [3] (100 μM, 80 s) it was 86.44%. The “Inhibition rate (%)” value in [4] (0.035 mM (Table 25)), in series [5] (0.035 mM (Table 25)), in series [7], in [11] (0.035 mM (Table 25)), in [16] (0.035 mM (Table 25)) and in [18] (0.035 mM (Table 25)) was 99% throughout. The inhibition rate entry in [5] is on record as “greater than 99%”. Also, the IC50 in series [5] is 9 µM. For the same molecule, the “membrane structure of the virus (TEM)” value in series [6] is “broken”. For the same molecule, the TNF-α in [8] was found to be 53 pg/mL; in series [12] (30 μM smeared), 53 pg/mL; in [12] (50 μM smeared), 47 pg/mL; in series [12] (100 μM smeared) it was 49 pg/mL. In addition, the “Sterilization rate (%)” value in series [9], in [10], in [13] and in [14] was 99% each time. Moreover, the IL-6 turned out to be 36 pg/mL in series [15] (30 μM smeared), 35 pg/mL in series [15] (50 μM smeared), 34 pg/mL in [15] (100 μM smeared) and 50 pg/mL in series [17].

With `CCCCCCCC(=O)OC(C)C(N)C(=O)O` (stereo not shown), the “Inhibition rate (%)” value in [4] (0.035 mM (Table 25)), in series [5] (0.035 mM (Table 25)), in [7], in [11] (0.035 mM (Table 25)), in series [16] (0.035 mM (Table 25)) and in [18] (0.035 mM (Table 25)) was 99% in each case. The inhibition rate result in series [5] is given as “greater than 99%”. In [5], the IC50 stood at 9 µM. Besides, the “membrane structure of the virus (TEM)” value in series [6] is listed as “broken”. In addition, the “Sterilization rate (%)” value in series [9], in [10], in [13] and in series [14] was 99% each time.

`CCCCCCCCN(C)C[C@H](O)[C@@H](O)[C@H](O)[C@H](O)CO` [N-octyl-N-methylglucamine]: the “effect of the complex on cells” value in series [19] (9 mM to 0.035 mM) is on record as “less than 10%”. Moreover, the inhibition at 35 µM in series [4], in series [5] (setting [23]), in series [11], in series [16] and in series [18] was 99% in each case. Further, in series [5] (Staphylococcus aureus), the inhibition at 9 µM was greater than 99%. In addition, the IC50 in series [5] (Staphylococcus aureus) turned out to be 3 µM. The “Sterilization rate (%)” value in series [9], in [10], in series [13] and in series [14] was 99% in each case. Further, in [20], the “liver, heart, kidney, bone/hepatobiliary function in blood versus control group” value is “no difference”. The “physiological state, body weight, fur color, food consumption, mental state versus control group” value in series [20] was “not significantly different”.

As for `CCC=CCC=CCC=CCC=CCC=CCC=CCCC(=O)NCCCCC(N)C(=O)O` (stereo not shown), the “effect of the complex on cells” value in [19] ([…] to 0.035 mM) was “less than 10%”. Further, the “Inhibition rate (%)” value in [4], in [5], in [7], in [11], in [16] and in [18] was 99% in each case. The inhibition rate result in [5] is recorded as “greater than 99%”. Further, the IC50 in [5] stood at 9 µM. Moreover, the “membrane structure of the virus (TEM)” value in series [6] is given as “broken”. Also, the “Sterilization rate (%)” value in series [9], in series [10], in series [13] and in series [14] was 99% each time. Further, in [20], the “liver, heart, kidney, bone/hepatobiliary function in blood versus control group” value was “no difference”. Moreover, the “physiological state, body weight, fur color, food consumption, mental state versus control group” value in [20] is reported as “not significantly different”.

Consider `CC/C=C\C/C=C\C/C=C\CCCCCCCC(=O)NCCCCC(N)C(=O)O` (stereo not shown) [Lys-ALA], for which the “proliferation of human hair follicle stem cells” value in [21] is “effectively promote the proliferation”.

On to `CCC=CCC=CCC=CCC=CCC=CCCCC(=O)OC(C)C(N)C(=O)O` (stereo not shown) [Thr-EPA], for which the cell migration entry in series [22] (5 nM) is given as “inhibited cell migration”; in [22] (50 µM) it was “promoted cell migration”.

Take `CCCCCCCCCN(C)C[C@H](O)[C@@H](O)[C@H](O)[C@H](O)CO` [N-nonyl-N-methylglucamine]: in series [19] (9 mM to 0.035 mM), the “effect of the complex on cells” value was “less than 10%”. Moreover, the inhibition at 35 µM in [4], in series [5] (setting [23]), in [11], in series [16] and in series [18] was 99% in each case. Moreover, the inhibition at 9 µM in series [5] (Staphylococcus aureus) is greater than 99%. In addition, in series [5] (Staphylococcus aureus), the IC50 was found to be 3 µM. For the same molecule, the “Sterilization rate (%)” value in series [9], in series [10], in series [13] and in [14] was 99% throughout. In addition, the “liver, heart, kidney, bone/hepatobiliary function in blood versus control group” value in series [20] is given as “no difference”. Further, the “physiological state, body weight, fur color, food consumption, mental state versus control group” value in series [20] is reported as “not significantly different”.

One may read the inhibition as the percentage by which the read-out fell short of the control.
